Assay results taken from publication PMC3489612, “Exploring flubendazole formulations for use in sheep. Pharmacokinetic evaluation of a cyclodextrin-based solution” (BMC Veterinary Research, 2012).
In brackets after ≈: the same amount, converted by molar mass.

How the values were obtained:
[1] = Abomasal fluid pharmacokinetics after intraruminal (i.r.) administration of FLBZ formulations (Experiment 1); format: in vivo; conditions: sheep, after i.r. FLBZ administration as both formulations
Protocol: (§1) FLBZ-solution (2% w/v) was prepared by dissolution of 2 g of pure FLBZ and 10 g of HPßCD in 100 mL of dionized water (pH 1.2). The pH was adjusted using hydrochloric acid (25 mM). The formulation was shaken during 48 h (40°C) and then was filtrated through a 0.45 μm filter (Whatman, NJ, USA). The final FLBZ concentration was confirmed by HPLC (n = 4). The FLBZ suspension (2% w/v) was performed by addition of 2 g FLBZ pure standard in a suspension of CMC (0.5% w/v) prepared with deionized water (100 mL, pH = 6.0) under shaking (24 h). The FLBZ suspension was vigorously shaken before its administration to sheep.
(§2) Six (6) parasite-free Corriedale male sheep (average weight: 50.6 ± 6.0 kg) were used in this experiment. Animals were kept indoors with commercial balanced food and water ad libitum for two months prior and during the trial. Four (4) animals were surgically fitted with a permanent cannula in the pyloric region of the abomasum following an adaptation of the technique described by Komarek. A 6-week post-surgery recovery period was allowed before starting the pharmacokinetic trials. […]
(§3) Experimental and fortified samples of plasma and abomasal fluid were analyzed for FLBZ, R-FLBZ, H-FLBZ and the internal standard (OBZ) by HPLC following the method described by Moreno et al.. […]

[2] = In vitro aqueous solubility of BZD compounds with or without HPßCD (10%); conditions: for aqueous solubility: 25°C, n = 6, mean ± SD; for HPßCD-induced solubility increasing effect: pH 1.2, with versus without HPßCD (10%); for solubility at 2 weeks: 25 °C, thermodynamic from solid
Protocol: BZD solubilities were determined in aqueous solutions at pH values of 1.2 (HCl/KCl) and 7.4 (KH2PO4) with or without HPßCD (10%). An excess amount of ABZ, ABZSO, MBZ, OFZ or FLBZ was suspended in glass tubes containing 10 mL of each medium. The tubes were placed in a water bath at 25°C with a constant shaken rate of 100 strokes/min for two weeks (Yamato BT-31, Yamato Scientific Co., Japan). […] The supernatants were collected and filtered through a 0.2 μm filter (Whatman Inc., NJ, USA). After filtration, samples were analyzed for drug quantification by HPLC following the method described below.
Experimental and fortified samples of plasma and abomasal fluid were analyzed for FLBZ, R-FLBZ, H-FLBZ and the internal standard (OBZ) by HPLC following the method described by Moreno et al.. Briefly, 50 μL of sample were injected in a Shimadzu 10 A HPLC System (Kyoto, Japan), using an UV detector set at 292 nm, an autosampler and a controller (Shimadzu Class LC10, Kyoto, Japan). Elution from the stationary phase (Selectosil C18 column, 5 μm, 250 × 4.6 mm, Phenomenex®, CA, USA) has been carried out at a flow rate of 1.2 mL/min, using a mixture of acetonitrile:potassium phosphate buffer (25 mM, pH 5.3) (40:60) as a mobile phase, during 13 min at 30°C.

[3] = in vivo
Protocol: as §1, §2, §3

[4] = system: ß-tubulin; set-up: method as in PMID 15463312; conditions: cited from earlier work
[5] = system: parasite motility; set-up: method as in PMID 9421720; conditions: cited from earlier work
[6] = aqueous solution (HCl/KCl) with 10% HPβCD, pH 1.2, aqueous with cosolvent or surfactant or cyclodextrin
[7] = aqueous solution (HCl/KCl) without HPβCD, pH 1.2, simulated gastric fluid
[8] = aqueous solution (KH2PO4) with 10% HPβCD, pH 7.4, aqueous with cosolvent or surfactant or cyclodextrin

COC(=O)Nc1nc2ccc(C(O)c3ccc(F)cc3)cc2[nH]1 (centres unmarked) [R-FLBZ, reduced flubendazole]
time of detection in abomasal fluid post-treatment [1]: up to 96 h

CCC[S+]([O-])c1ccc2[nH]c(NC(=O)OC)nc2c1 (centres unmarked) [Albendazole sulphoxide, albendazole sulphoxide]
highest aqueous solubility ([2]; pH 1.2 (value of Table 1 with HPßCD)): 6600 ± 1300 µg/mL | aqueous solubility ([2]; pH 1.2, with HPßCD (10%)): 6637.7 ± 1370.2 µg/mL (≈ 23600 µM) | HPßCD-induced solubility increasing effect [2]: 0.7 fold | aqueous solubility ([2]; pH 1.2, without HPßCD): 3818.6 ± 202.1 µg/mL (≈ 13600 µM) | aqueous solubility ([2]; pH 7.4, with HPßCD (10%)): 871.9 ± 129.3 µg/mL (≈ 3100 µM) | aqueous solubility ([2]; pH 7.4, without HPßCD): 83.6 ± 7.6 µg/mL (≈ 297 µM)

Nc1nc2ccc(C(=O)c3ccc(F)cc3)cc2[nH]1 [H-FLBZ]
time of detection in plasma (low concentrations) [3]: 18 to 48 h

COC(=O)Nc1nc2cc(C(=O)c3ccc(F)cc3)ccc2[nH]1 [Flubendazole]
affinity binding for ß-tubulin [4]: high affinity binding | potency in parasite motility test [5]: high potency | solubility at 2 weeks [2, 6]: 2250 ± 552 µg/mL (≈ 7190 µM) | solubility at 2 weeks [2, 7]: 29.6 ± 2.8 µg/mL (≈ 94.5 µM) | solubility at 2 weeks [2, 8]: 164 ± 120 µg/mL (≈ 523 µM) | solubility at 2 weeks ([2]; aqueous solution (KH2PO4) without HPβCD, pH 7.4, aqueous buffer): 5.8 ± 7 µg/mL (≈ 18.5 µM)

COC(=O)Nc1nc2ccc([S+]([O-])c3ccccc3)cc2[nH]1 (centres unmarked) [Oxfendazole, oxfendazole]
solubility at 2 weeks [2, 6]: 1900 ± 606 µg/mL (≈ 6030 µM) | solubility at 2 weeks [2, 7]: 420 ± 29.2 µg/mL (≈ 1330 µM) | solubility at 2 weeks [2, 8]: 348 ± 46.8 µg/mL (≈ 1100 µM) | HPßCD-induced solubility increasing effect [2]: 35 fold

CCCSc1ccc2nc(NC(=O)OC)[nH]c2c1 [Albendazole]
solubility at 2 weeks ([2]; pH 1.2, aqueous with cosolvent or surfactant or cyclodextrin): 921 ± 347 µg/mL (≈ 3470 µM) | solubility at 2 weeks ([2]; pH 1.2, simulated gastric fluid): 406 ± 53.4 µg/mL (≈ 1530 µM) | solubility at 2 weeks ([2]; pH 7.4, aqueous buffer): 4.6 ± 1.3 µg/mL (≈ 17.3 µM) | solubility at 2 weeks ([2]; pH 7.4, aqueous with cosolvent or surfactant or cyclodextrin): 43 ± 8.3 µg/mL (≈ 162 µM) | HPßCD-induced solubility increasing effect [2]: 1.3 fold
